For data set [1], the system named is bone metastases in prostate cancer. Particulars: palliative treatment of bone metastases in prostate cancer; cited from earlier work.
Data set [2] deals with PSMA-expressing PC3-PIP cells. Description: Cellular uptake and internalization in PSMA-expressing PC3-PIP cells. Type of data set: cell-based. The source says:
The PSMA binding scaffold of PSMA binds irreversibly to the extracellular enzymatic domain of PSMA leading to rapid internalization by PSMA-expressing cancer cells. Tumor cell uptake of CTT1403 is ˜84% after just 2½ hours (FIG. 1), compared to less than 40% tumor cell uptake of ^177Lu-PSMA-617 (structure shown below), in PSMA-expressing PC3-PIP cells.
Given that 99% of cell bound CTT1403 is internalized, compared to just 15% of ^177Lu-PSMA-617, targeting by CTT1403 is expected to confer a significant therapeutic advantage. This greater uptake will allow treatment of smaller tumors for a longer time. Both irreversible binding and cellular internalization increases exposure of target tissue to the therapeutic agent. Greater accumulation in the target tissue will permit a lower efficacious dose and/or dosing frequency, thus reducing a patient's total clinical exposure to the radionuclide and improving the therapeutic index.

For data set [3] the following is noted: 177Lu-PSMA-617 (7.4 GBq), Violet et al; cited from earlier work.
The conditions of data set [4]: reported value; cited from earlier work.
Another data set concerns tumor. Conditions: cited from earlier work.
The conditions of data set [5]: previous dosimetry studies in patients; cited from earlier work.
Setting [6] is: 177Lu-PSMA-617 (7.4 GBq), Violet et al.

SMILES strings stand for the structures.

On to `[Cl][223Ra][Cl]` [Radium-223 chloride], for which the “average increase in survival” value in data set [1] is on record as 3-4 months.
`O=C([O-])CN1CCN(CC(=O)[O-])CCN(CC(=O)NCC2CCC(C(=O)N[C@@H](Cc3ccc4ccccc4c3)C(=O)NCCCC[C@H](NC(=O)N[C@@H](CCC(=O)O)C(=O)O)C(=O)O)CC2)CCN(CC(=O)[O-])CC1.[177Lu+3]` (stereo partly shown) [177Lu-PSMA-617]: in data set [2] (PSMA-expressing PC3-PIP cells), the “cell bound agent that is internalized” value was found to be 15%. Also, the Tumor cell uptake result in data set [2] (after 2½ hours, PSMA-expressing PC3-PIP cells (FIG. 1)) is given as “less than 40%”. In data set [3], the “Kidney dose, Dose Gy/GBq” value was 0.77 Gy/GBq and the “Kidney dose, Mean Dose for (Gy)” value was 3.2 Gy. Also, in data set [4], the “half-life during the elimination phase” value was 10.8 ± 2.5 h and the “initial half-life during the distribution phase” value is 9.6 ± 5.4 min. In the data set on tumor (setting [6]), the “Tumor (PSA < 50%), Dose Gy/GBq” value was 1.41 Gy/GBq; the “Tumor (PSA < 50%), Mean Dose for (Gy)” value was 10.4 Gy; the “Tumor (PSA ≥ 50%), Dose Gy/GBq” value is listed as 1.91 Gy/GBq; the “Tumor (PSA ≥ 50%), Mean Dose for (Gy)” value is recorded as 14.1 Gy. The “tumor dose delivered that is associated with efficacy (reduction of circulating PSA)” value with tumor (over several cycles of therapy, published studies) is 10-14 Gy. Moreover, the “potential dose limited organs” value in data set [5] is “salivary glands, kidneys and bone marrow”.
